The source of these data is ChEMBL document CHEMBL4602697 (J Med Chem, 2020).

Data set [1] can be described thus: Metabolic stability in Sprague-Dawley rat liver microsomes assessed as parent compound remaining at 20 uM measured for 120 mins by HPLC/MS analysis relative to control. The class given is ADME, Microsome. The note with it: read-out: Stability. Background: Liver microsomes are vesicles of endoplasmic reticulum, rich in cytochrome P450 enzymes.
Data set [2] deals with Muscarinic acetylcholine receptor M3 (Rattus norvegicus, UniProt P08483). The experiment in a line: Displacement of [3H]-NMS from Wistar rat salivary gland muscarinic M3 receptor. On the technique in general: In a radioligand displacement assay an active substance lowers the binding of a labelled ligand.
Muscarinic acetylcholine receptor M3, sequence (P08483 whole entry): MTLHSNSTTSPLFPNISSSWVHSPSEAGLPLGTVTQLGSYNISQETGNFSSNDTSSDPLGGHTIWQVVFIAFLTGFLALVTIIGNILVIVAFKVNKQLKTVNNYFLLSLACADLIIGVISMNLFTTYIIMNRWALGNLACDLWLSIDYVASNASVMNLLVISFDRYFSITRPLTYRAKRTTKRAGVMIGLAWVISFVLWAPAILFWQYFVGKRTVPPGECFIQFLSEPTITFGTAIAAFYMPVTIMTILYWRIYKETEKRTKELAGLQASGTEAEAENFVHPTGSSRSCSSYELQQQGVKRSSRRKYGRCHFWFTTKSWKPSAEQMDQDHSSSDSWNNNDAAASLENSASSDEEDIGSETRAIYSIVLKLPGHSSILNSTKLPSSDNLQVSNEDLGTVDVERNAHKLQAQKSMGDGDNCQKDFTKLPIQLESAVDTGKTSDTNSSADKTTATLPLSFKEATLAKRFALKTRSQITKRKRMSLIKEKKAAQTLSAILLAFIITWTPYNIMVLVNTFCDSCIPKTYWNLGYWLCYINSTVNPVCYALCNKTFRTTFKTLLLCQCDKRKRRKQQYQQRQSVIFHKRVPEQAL
The target in data set [3] is T1, Muscarinic acetylcholine receptor M2 (Rattus norvegicus, UniProt P10980).
T1 sequence (P10980 whole entry): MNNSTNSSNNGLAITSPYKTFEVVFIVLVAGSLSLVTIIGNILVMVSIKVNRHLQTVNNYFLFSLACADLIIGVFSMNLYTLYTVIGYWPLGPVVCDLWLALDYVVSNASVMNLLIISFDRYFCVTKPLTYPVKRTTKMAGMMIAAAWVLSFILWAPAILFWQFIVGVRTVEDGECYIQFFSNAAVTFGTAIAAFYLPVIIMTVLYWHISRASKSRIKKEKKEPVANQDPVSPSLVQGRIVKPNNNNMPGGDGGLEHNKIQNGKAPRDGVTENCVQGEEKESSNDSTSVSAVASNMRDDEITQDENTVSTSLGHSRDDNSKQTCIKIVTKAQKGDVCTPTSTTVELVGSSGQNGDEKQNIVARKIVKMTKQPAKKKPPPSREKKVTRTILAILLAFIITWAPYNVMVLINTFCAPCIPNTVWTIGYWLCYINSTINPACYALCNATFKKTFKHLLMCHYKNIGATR
The experiment in a line: Displacement of [3H]-QNB from Wistar rat heart muscarinic M2 receptor.

Data set [4] addresses T2, Muscarinic acetylcholine receptor M1 (Rattus norvegicus, UniProt P08482).
T2 sequence (P08482 whole entry): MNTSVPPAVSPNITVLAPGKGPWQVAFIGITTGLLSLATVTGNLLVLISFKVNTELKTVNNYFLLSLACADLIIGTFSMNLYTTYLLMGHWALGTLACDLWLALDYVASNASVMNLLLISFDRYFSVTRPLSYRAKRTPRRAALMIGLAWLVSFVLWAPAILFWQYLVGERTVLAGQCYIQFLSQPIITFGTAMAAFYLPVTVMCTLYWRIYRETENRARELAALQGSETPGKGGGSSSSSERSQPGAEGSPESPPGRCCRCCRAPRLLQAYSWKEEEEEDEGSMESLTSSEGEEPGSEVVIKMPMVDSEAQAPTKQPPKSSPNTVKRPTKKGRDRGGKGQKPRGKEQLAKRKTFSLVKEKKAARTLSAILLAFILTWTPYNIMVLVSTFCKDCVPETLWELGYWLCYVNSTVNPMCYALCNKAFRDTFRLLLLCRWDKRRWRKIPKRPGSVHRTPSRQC
Put plainly: Displacement of [3H]pirenzepin from Wistar rat cortex muscarinic M1 receptor.

The target in data set [5] is Muscarinic receptor M2 and M3 (Rattus norvegicus) (UniProt P08483+P10980). The experiment in a line: Ratio of Ki for displacement of [3H]-QNB from Wistar rat heart muscarinic M2 receptor to Ki for displacement of [3H]-NMS from Wistar rat salivary gland muscarinic M3 receptor. The format is protein assay.
Muscarinic receptor M2 and M3 (Rattus norvegicus), sequence (P08483 whole entry, looked up, one chain of several): as the sequence (P08483 whole entry) above
The species named for another data set is Rattus norvegicus. Put plainly: Ratio of Ki for displacement of [3H]pirenzepin from Wistar rat cortex muscarinic M1 receptor to Ki for displacement of [3H]-NMS from Wistar rat salivary gland muscarinic M3 receptor.
Data set [6] in a line: Permeability across basolateral to apical side in human Caco2 cells coexpressing Pgp at 5 uM in presence of P-gp inhibitor valspodar measured for 3 hrs by UPLC/MS analysis. The format is ADME, cell-based. The settings on record: caco-2, 3 h. (Caco-2 monolayers are a common model of the intestinal barrier.)
Data set [7] in a line: Permeability across apical to basolateral side in human Caco2 cells coexpressing Pgp at 5 uM measured for 3 hrs by UPLC/MS analysis relative to control. The note with it: caco-2, 3 h. The class given is ADME, cell-based.
Data set [8] can be described thus: Permeability across basolateral to apical side in human Caco2 cells coexpressing Pgp at 5 uM measured for 3 hrs by UPLC/MS analysis relative to control. The class given is ADME, cell-based. The note with it: caco-2, 3 h.
A short description of data set [9]: Permeability across apical to basolateral side in human Caco2 cells coexpressing Pgp at 5 uM in presence of P-gp inhibitor valspodar measured for 3 hrs by UPLC/MS analysis. The class given is ADME, cell-based. The settings on record: caco-2, 3 h.

By Ki is commonly meant the equilibrium dissociation constant of an inhibitor or competing ligand from its target.

`O=C(Nc1ccc(F)cc1-c1ccc(F)c(Cl)c1)OCC1CCNCC1`: in data set [1], the remaining at 2 h, 20 µM amounted to 74%.
On the same count and under the same terms, the value for `O=C(Nc1ccc(F)cc1-c1cccc(Cl)c1)OCC1CCNCC1` was 53%; that for `C[N+]12CCC(CC1)[C@@H](OC(=O)Nc1ccc(F)cc1-c1cccc(Cl)c1)C2` was 65%; that for `C[N+]12CCC(CC1)[C@@H](OC(=O)Nc1ccc(F)cc1-c1ccc(F)c(Cl)c1)C2` was 63%.
As to `O=C(Nc1ccccc1-c1ccccc1)O[C@H]1CN2CCC1CC2`, the Ki in data set [2] was 0.47 nM; in data set [3], 7.6 nM; in [4], 0.65 nM.
With `O=C(Nc1ccccc1-c1ccccc1)OC1CCNCC1`, the Ki worked out at 27 nM in [2], 270 nM in data set [3] and 32 nM in data set [4]. The Ratio Ki in data set [5] was found to be 10; in the data set listed under Rattus norvegicus it was 1.2.
Regarding `C[C@H]1O[C@@H](O[C@H]2[C@@H](O)C[C@H](O[C@H]3[C@@H](O)C[C@H](O[C@H]4CC[C@@]5(C)[C@H](CC[C@@H]6[C@@H]5C[C@@H](O)[C@]5(C)[C@@H](C7=CC(=O)OC7)CC[C@]65O)C4)O[C@@H]3C)O[C@@H]2C)C[C@H](O)[C@@H]1O` [DIGOXIN], the permeability in [6] is 10.5%; in data set [7] it was 6.7%; in [8] it was 19.9%; in [9] it was 10.2%.
